Test results reported in ChEMBL document CHEMBL5252616, “Design, synthesis and biological evaluation of the tumor hypoxia-activated PROTACs bearing caged CRBN E3 ligase ligands” (Bioorg Med Chem, 2023).
The source made the active and inactive calls. The rule behind the calls is not given here.

How the values were obtained:
[1] = tested on: PC-9; assay: Induction of apoptosis in human PC-9 cells assessed as live cells at 0.1 uM incubated for 72 hrs under hypoxia condition by Annexin V-FITC/ PI staining based flow cytometry (Rvb= 88.19%); assay type: functional
[2] = tested on: PC-9; assay: Induction of apoptosis in human PC-9 cells assessed as necrotic cells at 0.1 uM incubated for 72 hrs under normoxia condition by Annexin V-FITC/ PI staining based flow cytometry (Rvb= 0.93%); assay type: functional
[3] = tested on: PC-9; assay: Induction of apoptosis in human PC-9 cells assessed as early apoptotic cells at 0.1 uM incubated for 72 hrs under hypoxia condition by Annexin V-FITC/ PI staining based flow cytometry (Rvb= 4.27%); assay type: functional
[4] = tested on: PC-9; assay: Induction of apoptosis in human PC-9 cells assessed as live cells at 0.1 uM incubated for 72 hrs under normoxia condition by Annexin V-FITC/ PI staining based flow cytometry (Rvb= 94.53%); assay type: functional
[5] = tested on: Protein cereblon/Epidermal growth factor receptor (Homo sapiens), P00533+Q96SW2 [UNDEFINED MUTATION]; assay: Protac activity at CRBN/EGFR deletion19 mutant in human PC-9 cells assessed as induction of EGFR degradation at 0.5 to 1 uM and measured after 24 hrs under hypoxia condition by Western blot analysis; assay type: cell-based; conditions: dose 0.5-1 µM
Protein cereblon/Epidermal growth factor receptor (Homo sapiens), P00533+Q96SW2 [UNDEFINED MUTATION], sequence (P00533 whole entry, looked up, stated change not applied): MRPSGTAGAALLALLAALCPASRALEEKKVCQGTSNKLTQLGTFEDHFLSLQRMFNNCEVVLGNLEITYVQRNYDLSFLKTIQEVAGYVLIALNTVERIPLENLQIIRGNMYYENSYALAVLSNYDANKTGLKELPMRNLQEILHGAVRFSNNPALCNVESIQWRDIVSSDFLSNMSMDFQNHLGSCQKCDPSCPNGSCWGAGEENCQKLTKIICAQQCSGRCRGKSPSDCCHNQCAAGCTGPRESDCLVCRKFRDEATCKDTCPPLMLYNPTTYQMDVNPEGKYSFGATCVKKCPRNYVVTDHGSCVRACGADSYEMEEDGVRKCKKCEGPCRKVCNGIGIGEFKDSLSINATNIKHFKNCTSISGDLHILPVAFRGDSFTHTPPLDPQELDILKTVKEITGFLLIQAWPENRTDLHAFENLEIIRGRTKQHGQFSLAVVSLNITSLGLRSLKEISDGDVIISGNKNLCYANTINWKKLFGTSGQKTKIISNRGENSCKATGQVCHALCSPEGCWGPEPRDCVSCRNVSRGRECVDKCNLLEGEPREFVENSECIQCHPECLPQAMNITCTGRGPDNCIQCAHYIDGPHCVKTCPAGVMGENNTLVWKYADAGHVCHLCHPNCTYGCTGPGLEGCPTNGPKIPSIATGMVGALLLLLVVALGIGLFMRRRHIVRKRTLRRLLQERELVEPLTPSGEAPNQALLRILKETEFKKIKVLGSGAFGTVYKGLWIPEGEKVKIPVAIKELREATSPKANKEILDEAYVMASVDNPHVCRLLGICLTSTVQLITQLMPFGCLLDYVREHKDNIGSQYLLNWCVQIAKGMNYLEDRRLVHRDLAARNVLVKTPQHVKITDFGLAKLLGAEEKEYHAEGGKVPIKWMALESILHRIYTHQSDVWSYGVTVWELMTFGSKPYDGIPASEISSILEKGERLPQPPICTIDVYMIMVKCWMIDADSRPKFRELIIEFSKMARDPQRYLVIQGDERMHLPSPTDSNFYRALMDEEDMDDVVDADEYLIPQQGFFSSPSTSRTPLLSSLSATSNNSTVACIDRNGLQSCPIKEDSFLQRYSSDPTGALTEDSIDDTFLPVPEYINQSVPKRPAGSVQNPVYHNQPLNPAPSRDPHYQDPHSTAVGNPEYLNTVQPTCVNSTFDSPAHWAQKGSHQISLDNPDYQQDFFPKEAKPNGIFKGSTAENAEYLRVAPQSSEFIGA
Protein cereblon/Epidermal growth factor receptor (Homo sapiens), P00533+Q96SW2 [UNDEFINED MUTATION], sequence (Q96SW2 whole entry, looked up, stated change not applied): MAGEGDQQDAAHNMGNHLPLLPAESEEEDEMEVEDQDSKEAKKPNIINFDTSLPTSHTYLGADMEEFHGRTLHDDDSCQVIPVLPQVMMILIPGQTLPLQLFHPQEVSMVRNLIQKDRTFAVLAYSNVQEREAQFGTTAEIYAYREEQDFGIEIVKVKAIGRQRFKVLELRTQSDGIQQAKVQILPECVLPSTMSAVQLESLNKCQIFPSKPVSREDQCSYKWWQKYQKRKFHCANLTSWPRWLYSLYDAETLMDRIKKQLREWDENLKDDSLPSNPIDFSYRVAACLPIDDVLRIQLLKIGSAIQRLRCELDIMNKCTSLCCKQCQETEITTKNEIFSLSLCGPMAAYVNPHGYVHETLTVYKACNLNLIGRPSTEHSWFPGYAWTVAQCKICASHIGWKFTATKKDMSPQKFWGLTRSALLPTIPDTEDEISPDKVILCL

[6] = tested on: Protein cereblon/Epidermal growth factor receptor (Homo sapiens), P00533+Q96SW2 [UNDEFINED MUTATION]; assay: Protac activity at CRBN/EGFR deletion19 mutant in human PC-9 cells assessed as induction of EGFR degradation at 0.001 to 0.1 uM and measured after 24 hrs under hypoxia condition by Western blot analysis; assay type: cell-based; conditions: dose 0.001-0.1 µM
[7] = tested on: PC-9; assay: Induction of apoptosis in human PC-9 cells assessed as early apoptotic cells at 0.1 uM incubated for 72 hrs under normoxia condition by Annexin V-FITC/ PI staining based flow cytometry (Rvb= 0.82%); assay type: functional
[8] = tested on: Protein cereblon/Epidermal growth factor receptor (Homo sapiens), P00533+Q96SW2 [UNDEFINED MUTATION]; assay: Protac activity at CRBN/EGFR deletion19 mutant in human PC-9 cells assessed as induction of EGFR degradation at 0.001 to 0.1 uM and measured after 24 hrs under normoxia condition by Western blot analysis; assay type: cell-based; conditions: dose 0.001-0.1 µM
[9] = tested on: PC-9; assay: Induction of apoptosis in human PC-9 cells assessed as necrotic cells at 0.1 uM incubated for 72 hrs under hypoxia condition by Annexin V-FITC/ PI staining based flow cytometry (Rvb= 2.81%); assay type: functional
[10] = tested on: PC-9; assay: Antitumor activity against human PC-9 cells assessed as inhibition of cell viability incubated for 72 hrs under hypoxia condition by CCK8 assay; assay type: functional, cell-based; conditions: PC-9, 72 h
[11] = tested on: PC-9; assay: Antitumor activity against human PC-9 cells assessed as inhibition of cell viability incubated for 72 hrs under normoxia condition by CCK8 assay; assay type: functional, cell-based; conditions: PC-9, 72 h
[12] = tested on: PC-9; assay: Induction of apoptosis in human PC-9 cells assessed as late apoptotic cells at 0.1 uM incubated for 72 hrs under normoxia condition by Annexin V-FITC/ PI staining based flow cytometry (Rvb= 3.72%); assay type: functional
[13] = tested on: PC-9; assay: Induction of apoptosis in human PC-9 cells assessed as late apoptotic cells at 0.1 uM incubated for 72 hrs under hypoxia condition by Annexin V-FITC/ PI staining based flow cytometry (Rvb= 4.73%); assay type: functional
[14] = tested on: PC-9; assay: Inhibition of cell migration in human PC-9 cells at 100 nM incubated for 24 hrs under hypoxia condition by imaging analysis; assay type: functional, cell-based
[15] = tested on: PC-9; assay: Induction of apoptosis in human PC-9 cells assessed as apoptotic cells at 0.1 uM incubated for 72 hrs under normoxia condition by Annexin V-FITC/ PI staining based flow cytometry (Rvb= 4.54%); assay type: functional
[16] = Prodrug conversion in hypoxia condition assessed as nitroreductase mediated drug degradation by measuring parent compound remaining in presence of NADPH as cofactor at 1 uM and measured after 60 mins by UPLC-MS/MS analysis; assay type: ADME; conditions: isolated protein, 1 h
[17] = tested on: PC-9; assay: Inhibition of cell migration in human PC-9 cells at 100 nM incubated for 24 hrs under normoxia condition by imaging analysis; assay type: functional, cell-based
[18] = tested on: PC-9; assay: Induction of apoptosis in human PC-9 cells assessed as apoptotic cells at 0.1 uM incubated for 72 hrs under hypoxia condition by Annexin V-FITC/ PI staining based flow cytometry (Rvb= 9%); assay type: functional
[19] = Prodrug conversion in hypoxia condition assessed as nitroreductase mediated active drug N-(4-((3-chloro-4-fluorophenyl)amino)-7-(((S)-tetrahydrofuran-3-yl)oxy)quinazolin-6-yl)-3-(2-(2-(2-((2-(2,6-dioxopiperidin-3-yl)-1,3-dioxoisoindolin-4-yl)oxy)ethoxy)ethoxy)ethoxy)propanamide formation in presence of NADPH as cofactor at 1 uM and measured after 60 mins by UPLC-MS/MS analysis; assay type: ADME; conditions: isolated protein, 1 h
[20] = tested on: Protein cereblon/Epidermal growth factor receptor (Homo sapiens), P00533+Q96SW2 [UNDEFINED MUTATION]; assay: Protac activity at CRBN/EGFR deletion19 mutant in human PC-9 cells assessed as induction of EGFR degradation at 0.5 to 1 uM and measured after 24 hrs under normoxia condition by Western blot analysis; assay type: cell-based; conditions: dose 0.5-1 µM
[21] = tested on: Protein cereblon/Epidermal growth factor receptor (Homo sapiens), P00533+Q96SW2 [UNDEFINED MUTATION]; assay: Protac activity at CRBN/EGFR deletion19 mutant in human PC-9 cells assessed as induction of EGFR degradation at 100 nM and measured after 24 hrs under normoxia condition by Western blot analysis; assay type: cell-based
[22] = tested on: Protein cereblon/Epidermal growth factor receptor (Homo sapiens), P00533+Q96SW2 [UNDEFINED MUTATION]; assay: Protac activity at CRBN/EGFR deletion19 mutant in human PC-9 cells assessed as induction of EGFR degradation at 0.001 to 1 uM and measured after 24 hrs under normoxia condition by Western blot analysis; assay type: cell-based; conditions: dose 0.001-1 µM
[23] = tested on: Protein cereblon/Epidermal growth factor receptor (Homo sapiens), P00533+Q96SW2 [UNDEFINED MUTATION]; assay: Protac activity at CRBN/EGFR deletion19 mutant in human PC-9 cells assessed as induction of EGFR degradation at 0.001 to 1 uM and measured after 24 hrs under hypoxia condition by Western blot analysis; assay type: cell-based; conditions: dose 0.001-1 µM

SMILES	Activity [1] [%]	Activity [2] [%]	Activity [3] [%]	Activity [4] [%]	Activity [7] [%]	Activity [9] [%]	IC50 [10] [nM]	IC50 [11] [nM]	Activity [12] [%]	Activity [13] [%]	inhibition [14]	Activity [15] [%]	Stability [16]	inhibition [17]	Activity [18] [%]	Drug metabolism [19]	further results
O=C(CCOCCOCCOCCOc1cccc2c1C(=O)N(C1CCC(=O)N(Cc3ccc([N+](=O)[O-])cc3)C1=O)C2=O)Nc1cc2c(Nc3ccc(F)c(Cl)c3)ncnc2cc1O[C@H]1CCOC1 (stereo partly specified)	80.78	1.1	9.37	92.63	3.28	1.89	1090	1920	2.98	7.96	Active	6.26	Unstable	inactive	17.33	Metabolite_Detected	Activity [5]: Active; Activity [6]: Active; Activity [8]: inactive; Activity [20]: Active
O=C1CCC(N2C(=O)c3cccc(OCCOCCOCCOCCC(=O)Nc4cc5c(Nc6ccc(F)c(Cl)c6)ncnc5cc4O[C@H]4CCOC4)c3C2=O)C(=O)N1 (stereo partly specified)	–	–	–	–	–	–	1300	1300	–	–	–	–	–	–	–	–	Activity [21]: Active
Cn1c(CN2C(=O)CCC(N3C(=O)c4cccc(OCCOCCOCCOCCC(=O)Nc5cc6c(Nc7ccc(F)c(Cl)c7)ncnc6cc5O[C@H]5CCOC5)c4C3=O)C2=O)cnc1[N+](=O)[O-] (stereo partly specified)	44.8	2.18	35.08	75.71	10.9	2.83	610	1100	11.21	17.28	Active	22.11	Unstable	inactive	52.36	Metabolite_Detected	Activity [22]: inactive; Activity [23]: Active
